Our source for the IC50 values is patent publication US8431593B2, “Heteroaryl amide derivatives” (H. Lundbeck A/S, priority 2006, dated 2013).

For this assay, the target named is T1, P2X7 receptor (Homo sapiens, UniProt Q99572).
T1 construct: host or cells: SH-SY5Y
T1 sequence (Q99572 1-595): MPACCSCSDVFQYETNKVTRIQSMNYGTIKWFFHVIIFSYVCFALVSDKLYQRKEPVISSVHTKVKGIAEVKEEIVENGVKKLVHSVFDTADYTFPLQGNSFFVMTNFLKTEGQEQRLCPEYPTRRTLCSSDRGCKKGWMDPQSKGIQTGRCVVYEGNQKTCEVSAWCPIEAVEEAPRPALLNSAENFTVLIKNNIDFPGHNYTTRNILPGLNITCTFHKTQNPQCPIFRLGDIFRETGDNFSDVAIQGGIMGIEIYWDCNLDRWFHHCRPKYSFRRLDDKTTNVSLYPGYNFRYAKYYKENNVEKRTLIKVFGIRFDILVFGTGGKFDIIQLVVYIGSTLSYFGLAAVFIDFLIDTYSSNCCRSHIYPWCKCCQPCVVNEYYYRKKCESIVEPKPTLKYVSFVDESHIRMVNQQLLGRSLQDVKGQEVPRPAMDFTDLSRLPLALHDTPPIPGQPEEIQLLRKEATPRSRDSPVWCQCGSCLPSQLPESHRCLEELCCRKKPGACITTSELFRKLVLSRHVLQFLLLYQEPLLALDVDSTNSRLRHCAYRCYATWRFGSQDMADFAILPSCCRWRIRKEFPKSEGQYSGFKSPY
Description: P2X7 calcium mobilization assay, high throughput, antagonist activity (Example 4A). The format is cell-based. Particulars: 50% decrease in the fluorescence response of cells exposed to 80 μM of 2′(3′)-O-(4-benzoyl-benzoyl)adenosine 5′-triphosphate; Example 4A; read-out: IC50. The method in brief:
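Cells plated 100,000/well the day before; after 1 h dye loading and one rinse, cells were preincubated 1 h at room temperature with test compound. Calcium mobilization then read on FLIPR^TETRA; maximum RFU corrected by subtracting mean no-agonist response and referenced to mean agonist-control maximum.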

Where only a bound is given, the exact number is not on record here.

Broadly, the IC50 is the concentration at which inhibition is half-maximal. `CC(C)NCCSCc1cn2c(C(=O)NCC34CC5CC(CC(C5)C3)C4)cccc2n1` [Compound 757, N-(adamantan-1-ylmethyl)-2-({[2-(isopropylamino)ethyl]thio}methyl) imidazo[1,2-a] pyridine-5-carboxamide]: the IC50 is less than 2000 nM.
The same measure for `COC(=O)C(Cc1cn2c(C(=O)NCC34CC5CC(CC(C5)C3)C4)cccc2n1)c1ccccn1` (centres unmarked) [Compound 758, methyl 3-{5-[(adamantan-1-ylmethyl)carbamoyl]imidazo[1,2-a]pyridin-2-yl}-2-pyridin-2-ylpropanoate]: less than 2000 nM; for `CCOC(=O)C(Cc1cn2c(C(=O)NCC34CC5CC(CC(C5)C3)C4)cccc2n1)c1cccnc1` (centres unmarked) [Compound 759, ethyl 3-{5-[(adamantan-1-ylmethyl)carbamoyl]imidazo[1,2-a]pyridin-2-yl}-2-pyridin-3-ylpropanoate]: less than 2000 nM; for `Cc1ccc(C(CNC(=O)c2cccc3nc(CN4CC[C@@H](N)C4)cn23)CC(C)C)cc1` (some centres unmarked) [Compound 760, 2-[(3-aminopyrrolidin-1-yl)methyl]-N-[4-methyl-2-(4-methylphenyl)pentyl] imidazo[1,2-a] pyridine-5-carboxamide]: less than 2000 nM.
The same measure for `CC(C#N)c1cn2c(C(=O)NCC34CC5CC(CC(C5)C3)C4)cccc2n1` (centres unmarked) [Compound 761, N-(adamantan-1-ylmethyl)-2-(1-cyanoethyl)imidazo [1,2-a]pyridine-5-carboxamide]: less than 2000 nM; for `CC(C)CC(CNC(=O)c1cccc2nc(CN3CC[C@@H](N)C3)cn12)c1ccc(Cl)cc1` (some centres unmarked) [Compound 762, 2-[(3-aminopyrrolidin-1-yl)methyl]-N-[2-(4-chlorophenyl)-4-methylpentyl] imidazo [1,2-a]pyridine-5-carboxamide]: less than 2000 nM.
As for `CC(C)CC(CNC(=O)c1cccc2nc(CN3CC[C@@H](NC(=O)OC(C)(C)C)C3)cn12)c1ccc(C(F)(F)F)cc1` (some centres unmarked) [Compound 764, tert-butyl (1-{[5-({4-methyl-2-[4-(trifluoromethyl)phenyl]pentyl}carbamoyl)imidazo [1,2-a]pyridin-2-yl]methyl}pyrrolidin-3-yl)carbamate], the figure is less than 2000 nM; as for `Cc1ccc(C(CNC(=O)c2cccc3nc(CN4CC[C@@H](NC(=O)OC(C)(C)C)C4)cn23)CC(C)C)cc1` (some centres unmarked) [Compound 765, tert-butyl {1-[(5-{[4-methyl-2-(4-methylphenyl)pentyl]carbamoyl}imidazo [1,2-a]pyridin-2-yl)methyl]pyrrolidin-3-yl}carbamate], less than 2000 nM; as for `CC(C)CC(CNC(=O)c1cccc2nc(CN3CC[C@@H](NC(=O)OC(C)(C)C)C3)cn12)c1ccc(Cl)cc1` (some centres unmarked) [Compound 766, tert-butyl{1-[(5-{[2-(4-chlorophenyl)-4-methylpentyl]carbamoyl}imidazo[1,2-a]pyridin-2-yl)methyl]pyrrolidin-3-yl}carbamate], less than 2000 nM.
As to `CN(C(=O)Cc1cn2c(C(=O)NCC34CC5CC(CC(C5)C3)C4)cccc2n1)C1CCOCC1` [Compound 767, N-(adamantan-1-ylmethyl)-2-{2-[methyl(tetrahydro-2H-pyran-4-yl)amino]-2-oxoethyl} imidazo[1,2-a] pyridine-5-carboxamide], the IC50 is less than 2000 nM.
The same measure for `N[C@@H]1CCN(Cc2cn3c(C(=O)NCC4(c5cccnc5)CCCCC4)cccc3n2)C1` [Compound 769, 2-[(3-aminopyrrolidin-1-yl)methyl]-N-[(1-pyridin-3-ylcyclohexyl)methyl] imidazo[1,2-a] pyridine-5-carboxamide]: less than 2000 nM.
In the case of `CC(c1cn2c(C(=O)NCC34CC5CC(CC(C5)C3)C4)cccc2n1)c1nnn[nH]1` (centres unmarked) [Compound 770, N-(adamantan-1-ylmethyl)-2-[1-(1H-tetrazol-5-yl)ethyl]imidazo [1,2-a]pyridine-5-carboxamide], the half-inhibitory concentration (IC50) is less than 2000 nM.
As for `N[C@@H]1CCCN(C(=O)Cc2cn3c(NC(=O)CC45CC6CC(CC(C6)C4)C5)cccc3n2)C1` [Compound 771, 2-adamantan-1-yl-N-(2-{2-[(3R)-3-aminopiperidin-1-yl]-2-oxoethyl}imidazo[1,2-a]pyridin-5-yl)acetamide], the figure is less than 2000 nM; as for `Cc1cnc(N(C)Cc2cn3c(C(=O)NCC45CC6CC(CC(C6)C4)C5)cccc3n2)nc1N` [Compound 772, N-(adamantan-1-ylmethyl)-2-{[(4-amino-5-methylpyrimidin-2-yl)(methyl)amino]methyl}imidazo [1,2-a]pyridine-5-carboxamide], less than 2000 nM.
The same measure for `CN(Cc1cn2c(C(=O)NCC34CC5CC(CC(C5)C3)C4)cccc2n1)c1ncccc1C(=O)O` [Compound 774, 2-[({5-[(adamantan-1-ylmethyl)carbamoyl]imidazo[1,2-a]pyridin-2-yl}methyl) (methyl)amino] nicotinic acid]: less than 2000 nM; for `N[C@@H]1CCN(C(=O)CCc2cn3c(C(=O)NCC45CC6CC(CC(C6)C4)C5)cccc3n2)C1` [Compound 778, N-(adamantan-1-ylmethyl)-2-{3-[(3R)-3-aminopyrrolidin-1-yl]-3-oxopropyl} imidazo[1,2-a] pyridine-5-carboxamide]: less than 2000 nM.
As for `CNC1CCN(C(=O)CCc2cn3c(C(=O)NCC45CC6CC(CC(C6)C4)C5)cccc3n2)C1` (centres unmarked) [Compound 779, N-(adamantan-1-ylmethyl)-2-{3-[3-(methylamino)pyrrolidin-1-yl]-3-oxopropyl} imidazo[1,2-a] pyridine-5-carboxamide], the figure is less than 2000 nM.
With `NC1CCCN(C(=O)CCc2cn3c(C(=O)NCC45CC6CC(CC(C6)C4)C5)cccc3n2)C1` (centres unmarked) [Compound 780, N-(adamantan-1-ylmethyl)-2-[3-(3-aminopiperidin-1-yl)-3-oxopropyl] imidazo[1,2-a] pyridine-5-carboxamide], the IC50 is less than 2000 nM.
As for `CC(Cc1nnn[nH]1)c1cn2c(C(=O)NCC34CC5CC(CC(C5)C3)C4)cccc2n1` (centres unmarked) [Compound 781, N-(adamantan-1-ylmethyl)-2-[1-methyl-2-(1H-tetrazol-5-yl)ethyl] imidazo[1,2-a] pyridine-5-carboxamide], the figure is less than 2000 nM; as for `N[C@@H]1CCN(Cc2cn3c(C(=O)NCC(CC4CC4)c4ccccc4)cccc3n2)C1` (some centres unmarked) [Compound 782, 2-[(3-aminopyrrolidin-1-yl)methyl]-N-(3-cyclopropyl-2-phenylpropyl) imidazo [1,2-a]pyridine-5-carboxamide], less than 2000 nM; as for `N[C@@H]1CCN(Cc2cn3c(C(=O)NCC(CC4CCC4)c4ccccc4)cccc3n2)C1` (some centres unmarked) [Compound 783, 2-[(3-aminopyrrolidin-1-yl)methyl]-N-(3-cyclobutyl-2-phenylpropyl) imidazo [1,2-a]pyridine-5-carboxamide], less than 2000 nM.
For the compound `CC(C)(C)OC(=O)N[C@@H]1CCN(Cc2cn3c(C(=O)NCC(CC4CCCCC4)c4ccccc4)cccc3n2)C1` (some centres unmarked) [Compound 785, tert-butyl [1-({5-[(3-cyclohexyl-2-phenylpropyl)carbamoyl]imidazo[1,2-a]pyridin-2-yl}methyl)pyrrolidin-3-yl]carbamate], the half-maximal inhibitory concentration (IC50) was less than 2000 nM.
As for `N[C@@H]1CCN(Cc2cn3c(C(=O)NCC(CC4CCCC4)c4ccccc4)cccc3n2)C1` (some centres unmarked) [Compound 786, 2-[(3-aminopyrrolidin-1-yl)methyl]-N-(3-cyclopentyl-2-phenylpropyl) imidazo[1,2-a] pyridine-5-carboxamide], the figure is less than 2000 nM.
